In patent US11203571B2, “Sulfonamides as modulators of sodium channels” (VERTEX PHARMACEUTICALS INCORPORATED, priority 2013, dated 2021):

Key:
[1] = Human liver microsome assay; format: in vitro ADME; conditions: 1 uM substrate, 0.5 mg/mL liver microsome, 2 mM NADPH, 37° C., referenced against time zero control
Protocol: Human Liver Microsome Assay Protocol
Liver microsomal stability data were generated as follows. Substrates were incubated at 37° C. and shaken for 30 minutes in a phosphate buffered solution with human liver microsomes and the cofactor NADPH. A time zero control was similarly prepared, however with NADPH excluded. The final incubation concentrations were 1 uM substrate (0.2% DMSO), 0.5 mg/mL liver microsome, 2 mM NADPH, and 0.1 M phosphate. Reactions were quenched and proteins precipitated with the addition of 2 volume equivalents of ice cold acetonitrile containing an internal standard. Following a centrifugation step, aliquots from the quenched incubations were further diluted with 4 volume equivalents of a 50% aqueous methanol solution and then subjected to LC/MS/MS analysis for quantitation of parent substrate. Microsome stability values were calculated as the percent of substrate remaining after 30 minutes referenced against the time zero control.

human Nav1.8 = human Nav1.8 (Homo sapiens (Human), UniProt Q9Y5Y9); experiment: E-VIPR optical membrane potential assay with electrical stimulation; format: cell-based; conditions: HEK cells expressing human Nav1.8
Sequence of human Nav1.8 (Q9Y5Y9 whole entry): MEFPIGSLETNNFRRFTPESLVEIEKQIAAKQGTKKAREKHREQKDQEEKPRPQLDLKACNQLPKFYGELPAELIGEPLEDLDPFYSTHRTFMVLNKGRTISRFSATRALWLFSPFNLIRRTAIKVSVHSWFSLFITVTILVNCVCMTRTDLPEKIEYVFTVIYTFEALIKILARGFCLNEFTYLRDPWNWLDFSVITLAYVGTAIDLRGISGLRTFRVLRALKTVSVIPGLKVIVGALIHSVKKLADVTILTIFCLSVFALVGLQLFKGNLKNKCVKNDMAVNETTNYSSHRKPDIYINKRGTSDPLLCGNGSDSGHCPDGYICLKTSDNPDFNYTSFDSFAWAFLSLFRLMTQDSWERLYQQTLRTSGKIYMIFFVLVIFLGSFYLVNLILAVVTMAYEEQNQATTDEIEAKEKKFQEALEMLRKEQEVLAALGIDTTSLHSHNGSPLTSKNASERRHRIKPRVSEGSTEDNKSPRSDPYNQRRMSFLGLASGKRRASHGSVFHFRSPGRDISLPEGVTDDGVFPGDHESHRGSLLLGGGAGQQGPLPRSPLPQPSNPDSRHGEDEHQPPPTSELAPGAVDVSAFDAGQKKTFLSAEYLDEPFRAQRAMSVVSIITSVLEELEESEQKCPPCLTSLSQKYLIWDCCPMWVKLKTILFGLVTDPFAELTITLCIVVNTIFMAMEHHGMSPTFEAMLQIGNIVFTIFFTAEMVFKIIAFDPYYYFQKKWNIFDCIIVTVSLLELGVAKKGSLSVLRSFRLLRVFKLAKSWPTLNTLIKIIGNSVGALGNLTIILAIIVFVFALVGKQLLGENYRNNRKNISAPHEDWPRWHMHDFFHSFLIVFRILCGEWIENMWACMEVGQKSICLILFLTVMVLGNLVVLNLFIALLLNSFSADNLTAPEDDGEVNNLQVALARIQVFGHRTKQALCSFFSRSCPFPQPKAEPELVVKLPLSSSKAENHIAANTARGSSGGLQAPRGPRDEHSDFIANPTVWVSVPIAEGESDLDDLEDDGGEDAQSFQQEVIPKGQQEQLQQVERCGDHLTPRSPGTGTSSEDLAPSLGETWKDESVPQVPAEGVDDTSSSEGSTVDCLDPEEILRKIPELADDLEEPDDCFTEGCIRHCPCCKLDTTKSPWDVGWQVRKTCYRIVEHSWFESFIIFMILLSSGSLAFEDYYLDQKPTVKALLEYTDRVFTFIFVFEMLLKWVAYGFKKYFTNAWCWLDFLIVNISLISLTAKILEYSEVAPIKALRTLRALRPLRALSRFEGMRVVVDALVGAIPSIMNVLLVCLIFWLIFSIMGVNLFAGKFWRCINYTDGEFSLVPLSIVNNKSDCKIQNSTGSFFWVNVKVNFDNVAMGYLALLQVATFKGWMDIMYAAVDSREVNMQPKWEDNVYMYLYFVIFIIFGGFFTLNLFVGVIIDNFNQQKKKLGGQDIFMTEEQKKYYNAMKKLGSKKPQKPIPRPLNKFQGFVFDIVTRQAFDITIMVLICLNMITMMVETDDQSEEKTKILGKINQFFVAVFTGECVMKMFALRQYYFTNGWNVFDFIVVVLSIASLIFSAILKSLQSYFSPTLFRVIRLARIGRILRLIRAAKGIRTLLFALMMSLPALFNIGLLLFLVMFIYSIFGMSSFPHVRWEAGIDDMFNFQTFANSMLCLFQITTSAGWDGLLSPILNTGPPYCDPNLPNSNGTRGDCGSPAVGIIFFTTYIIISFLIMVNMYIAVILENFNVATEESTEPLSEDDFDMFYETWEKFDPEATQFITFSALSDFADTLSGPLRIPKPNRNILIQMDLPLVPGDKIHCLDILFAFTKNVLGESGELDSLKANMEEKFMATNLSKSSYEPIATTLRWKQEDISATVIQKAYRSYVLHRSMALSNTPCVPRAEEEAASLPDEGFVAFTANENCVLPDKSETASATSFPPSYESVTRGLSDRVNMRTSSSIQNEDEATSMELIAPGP
Source text: E-VIPR Optical Membrane Potential Assay Method with Electrical Stimulation
Sodium channels are voltage-dependent proteins that can be activated by inducing membrane voltage changes by applying electric fields. The electrical stimulation instrument and methods of use are described in Ion Channel Assay Methods PCT/US01/21652, herein incorporated by reference and are referred to as E-VIPR. The instrument comprises a microtiter plate handler, an optical system for exciting the coumarin dye while simultaneously recording the coumarin and oxonol emissions, a waveform generator, a current- or voltage-controlled amplifier, and a device for inserting electrodes in well. Under integrated computer control, this instrument passes user-programmed electrical stimulus protocols to cells within the wells of the microtiter plate.
24 hours before the assay on E-VIPR, HEK cells expressing human Nav1.8 were seeded in 384-well poly-lysine coated plates at 15,000-20,000 cells per well. HEK cells were grown in media (exact composition is specific to each cell type and NaV subtype) supplemented with 10% FBS (Fetal Bovine Serum, qualified; GibcoBRL #16140-071) and 1% Pen-Strep (Penicillin-Streptomycin; GibcoBRL #15140-122). Cells were grown in vented cap flasks, in 90% humidity and 5% CO2.
• 100 mg/mL Pluronic F-127 (Sigma #P2443), in dry DMSO • Compound Plates: 384-well round bottom plate, e.g. Corning 384-well Polypropylene Round Bottom #3656 • Cell Plates: 384-well tissue culture treated plate, e.g. Greiner #781091-1B • 10 mM DiSBAC6(3) (Aurora #00-100-010) in dry DMSO • 10 mM CC2-DMPE (Aurora #00-100-008) in dry DMSO • 200 mM ABSC1 in H20
Bath1 buffer: Glucose 10 mM (1.8 g/L), Magnesium Chloride (Anhydrous), 1 mM (0.095 g/L), Calcium Chloride, 2 mM (0.222 g/L), HEPES 10 mM (2.38 g/L), Potassium Chloride, 4.5 mM (0.335 g/L), Sodium Chloride 160 mM (9.35 g/L).
Hexyl Dye Solution: Bath1 Buffer+0.5% β-cyclodextrin (make this prior to use, Sigma #C4767), 8 μM CC2-DMPE+2.5 μM DiSBAC6(3). To make the solution Added volume of 10% Pluronic F127 stock equal to volumes of CC2-DMPE+DiSBAC6(3). The order of preparation was first mix Pluronic and CC2-DMPE, then added DiSBAC6(3) while vortexing, then added Bath1+β-Cyclodextrin.
1) Pre-spotted compounds (in neat DMSO) into compound plates. Vehicle control (neat DMSO), the positive control (20 mM DMSO stock tetracaine, 125 μM final in assay) and test compounds were added to each well at 160× desired final concentration in neat DMSO. Final compound plate volume was 80 μL (80-fold intermediate dilution from 1 μL DMSO spot; 160-fold final dilution after transfer to cell plate). Final DMSO concentration for all wells in assay was 0.625%.
2) Prepared Hexyl Dye Solution.
3) Prepared cell plates. On the day of the assay, medium was aspirated and cells were washed three times with 100 μL of Bath1 Solution, maintaining 25 μL residual volume in each well.
4) Dispensed 25 μL per well of Hexyl Dye Solution into cell plates. Incubated for 20-35 minutes at room temp or ambient conditions.
5) Dispensed 80 μL per well of Bath1 into compound plates. Acid Yellow-17 (1 mM) was added and Potassium Chloride was altered from 4.5 to 20 mM depending on the NaV subtype and assay sensitivity.
6) Washed cell plates three times with 100 μL per well of Bath1, leaving 25 μL of residual volume. Then transferred 25 uL per well from Compound Plates to Cell Plates. Incubated for 20-35 minutes at room temp/ambient condition.
7) Read Plate on E-VIPR. Used the current-controlled amplifier to deliver stimulation wave pulses for 10 seconds and a scan rate of 200 Hz. A pre-stimulus recording was performed for 0.5 seconds to obtain the un-stimulated intensities baseline. The stimulatory waveform was followed by 0.5 seconds of post-stimulation recording to examine the relaxation to the resting state.
Data was analyzed and reported as normalized ratios of emission intensities measured in the 460 nm and 580 nm channels. […]

| Structure (SMILES) | HLM: percent unchanged after 30 min [1] [%] | IC50 (human Nav1.8) [nM] |
| --- | --- | --- |
| NS(=O)(=O)c1cccc(NC(=O)c2ccc(C(F)(F)F)cc2Oc2ccc(F)cc2)c1 [Compound 1, 2-(4-fluorophenoxy)-N-(3-sulfamoylphenyl)-4-(trifluoromethyl)benzamide] | 83 | 14 |
| NS(=O)(=O)c1cccc(NC(=O)c2ccc(C(F)(F)F)cc2Oc2ccc(F)cc2F)c1 [Compound 2, 2-(2,4-difluorophenoxy)-N-(3-sulfamoylphenyl)-4-(trifluoromethyl)benzamide] | 97 | 22 |
| NS(=O)(=O)c1cccc(NC(=O)c2cc(C(F)(F)F)ccc2Oc2ccc(F)cc2)c1 [Compound 3, 2-(4-fluorophenoxy)-N-(3-sulfamoylphenyl)-5-(trifluoromethyl)benzamide] | 117 | 16 |
| N#Cc1ccc(C(=O)Nc2cccc(S(N)(=O)=O)c2)c(Oc2ccc(F)cc2Cl)c1 [Compound 4, 2-(2-chloro-4-fluoro-phenoxy)-4-cyano-N-(3-sulfamoylphenyl)benzamide] | 118 | 27 |
| NS(=O)(=O)c1cccc(NC(=O)c2cc(Cl)ccc2Oc2ccc(F)cc2)c1 [Compound 5, 5-chloro-2-(4-fluorophenoxy)-N-(3-sulfamoylphenyl)benzamide] | 107 | 21 |
| NS(=O)(=O)c1cccc(NC(=O)c2cc(C(F)(F)F)ccc2Oc2ccc(F)cc2F)c1 [Compound 6, 2-(2,4-difluorophenoxy)-N-(3-sulfamoylphenyl)-5-(trifluoromethyl)benzamide] | 106 | 13 |
| Cc1cc(C(=O)Nc2cccc(S(N)(=O)=O)c2)c(Oc2ccc(F)cc2)cc1Cl [Compound 7, 4-chloro-2-(4-fluorophenoxy)-5-methyl-N-(3-sulfamoylphenyl)benzamide] | 78 | 12 |
| NS(=O)(=O)c1cccc(NC(=O)c2ccc(Cl)cc2Oc2ccc(F)cc2Cl)c1 [Compound 8, 4-chloro-2-(2-chloro-4-fluorophenoxy)-N-(3-sulfamoylphenyl)benzamide] | 108 | 10 |
| Cc1cc(F)ccc1Oc1cc(C#N)ccc1C(=O)Nc1cccc(S(N)(=O)=O)c1 [Compound 9, 4-cyano-2-(4-fluoro-2-methyl-phenoxy)-N-(3-sulfamoylphenyl)benzamide] | 102 | 28 |
| COc1cc(F)ccc1Oc1cc(C#N)ccc1C(=O)Nc1cccc(S(N)(=O)=O)c1 [Compound 10, 4-cyano-2-(4-fluoro-2-methoxyphenoxy)-N-(3-sulfamoylphenyl)benzamide] | 86 | 20 |
| N#Cc1ccc(Oc2ccc(F)cc2Cl)c(C(=O)Nc2cccc(S(N)(=O)=O)c2)c1 [Compound 11, 2-(2-chloro-4-fluorophenoxy)-5-cyano-N-(3-sulfamoylphenyl)benzamide] | 89 | 24 |
| Cc1cc(F)ccc1Oc1cccc(C(F)(F)F)c1C(=O)Nc1cccc(S(N)(=O)=O)c1 [Compound 12, 2-(4-fluoro-2-methylphenoxy)-N-(3-sulfamoylphenyl)-6-(trifluoromethyl)benzamide] | 94 | 9 |
| COc1cc(F)ccc1Oc1cccc(C(F)(F)F)c1C(=O)Nc1cccc(S(N)(=O)=O)c1 [Compound 13, 2-(4-fluoro-2-methoxyphenoxy)-N-(3-sulfamoylphenyl)-6-(trifluoromethyl)benzamide] | 78 | 2 |
| COc1cc(F)ccc1Oc1cc(C(F)(F)F)ccc1C(=O)Nc1cccc(S(N)(=O)=O)c1 [Compound 14, 2-(4-fluoro-2-methoxyphenoxy)-N-(3-sulfamoylphenyl)-4-(trifluoromethyl)benzamide] | 83 | 5 |
| COc1cc(F)ccc1Oc1cc(Cl)ccc1C(=O)Nc1cccc(S(N)(=O)=O)c1 [Compound 15, 4-chloro-2-(4-fluoro-2-methoxy-phenoxy)-N-(3-sulfamoylphenyl)benzamide] | 81 | 13 |
| COc1cc(F)ccc1Oc1ccc(Cl)cc1C(=O)Nc1cccc(S(N)(=O)=O)c1 [Compound 16, 5-chloro-2-(4-fluoro-2-methoxyphenoxy)-N-(3-sulfamoylphenyl)benzamide] | 86 | 7 |
| NS(=O)(=O)c1cccc(NC(=O)c2cc(Cl)ccc2Oc2ccc(F)cc2Cl)c1 [Compound 17, 5-chloro-2-(2-chloro-4-fluorophenoxy)-N-(3-sulfamoylphenyl)benzamide] | 102 | 5 |
| Cc1cc(F)ccc1Oc1cc(C(F)(F)F)ccc1C(=O)Nc1cccc(S(N)(=O)=O)c1 [Compound 18, 2-(4-fluoro-2-methylphenoxy)-N-(3-sulfamoylphenyl)-4-(trifluoromethyl)benzamide] | 98 | 7 |
| Cc1cc(F)ccc1Oc1cc(Cl)ccc1C(=O)Nc1cccc(S(N)(=O)=O)c1 [Compound 19, 4-chloro-2-(4-fluoro-2-methyl-phenoxy)-N-(3-sulfamoylphenyl)benzamide] | 94 | 16 |
| Cc1cc(F)ccc1Oc1ccc(Cl)cc1C(=O)Nc1cccc(S(N)(=O)=O)c1 [Compound 20, 5-chloro-2-(4-fluoro-2-methylphenoxy)-N-(3-sulfamoylphenyl)benzamide] | 96 | 4 |
| Cc1cc(F)ccc1Oc1ccc(F)cc1C(=O)Nc1cccc(S(N)(=O)=O)c1 [Compound 21, 5-fluoro-2-(4-fluoro-2-methylphenoxy)-N-(3-sulfamoylphenyl)benzamide] | 96 | 23 |
| COc1ccc(Oc2cc(Cl)c(Cl)cc2C(=O)Nc2cccc(S(N)(=O)=O)c2)c(OC)c1 [Compound 76, 4,5-dichloro-2-(2,4-dimethoxyphenoxy)-N-(3-sulfamoylphenyl)benzamide] | 58 | – |
| COc1cc(Cl)ccc1Oc1cc(Cl)ccc1C(=O)Nc1cccc(S(N)(=O)=O)c1 [Compound 85, 4-chloro-2-(4-chloro-2-methoxyphenoxy)-N-(3-sulfamoylphenyl)benzamide] | – | 15 |
| CC(C)Oc1ccc(Oc2cc(Cl)ccc2C(=O)Nc2cccc(S(N)(=O)=O)c2)cc1 [Compound 87, 4-chloro-2-(4-isopropoxyphenoxy)-N-(3-sulfamoylphenyl)benzamide] | – | 29 |
| COc1ccc(Oc2cc(C(F)(F)F)cc(C3CC3)c2C(=O)Nc2cccc(S(N)(=O)=O)c2)cc1F [Compound 100, 2-cyclopropyl-6-(3-fluoro-4-methoxyphenoxy)-N-(3-sulfamoylphenyl)-4-(trifluoromethyl)benzamide] | – | 18 |
